{"source": "patent US20190307783A1", "about": "“USE OF ANTIVIRALS TO INHIBIT PROTOZOAN VIRUSES” (priority 2016, published 2019)", "test_system": "LRV1 (LgyLRV1 capsid levels)", "test": "organism not typed", "conditions": "for LgyLRV1− population in washout, of total cell population / Parasites with LgyLRV1+ capsid levels in washout population: then drug-free media", "note": "Read-outs that look alike come from different tables or passages of the source.", "data": [{"compound": "C[C@@]1(O)[C@H](O)[C@@H](CO)O[C@H]1n1cnc2c(N)ncnc21", "note": "[2′C-methyadenosine, 2′-C-methyladenosine]", "values": [{"measurement": "LgyLRV1− population in washout, of total cell population", "setting": "100 μM for four doublings", "value": 50, "unit": "%"}, {"measurement": "Parasites with LgyLRV1+ capsid levels in washout population", "setting": "100 μM for four doublings", "value": 36, "unit": "%"}, {"measurement": "LgyLRV1− population in washout, of total cell population", "setting": "100 μM for three doublings", "value": 31, "unit": "%"}, {"measurement": "Parasites with LgyLRV1+ capsid levels in washout population", "setting": "100 μM for three doublings", "value": 55, "unit": "%"}, {"measurement": "Fold less LRV1 capsid expression", "setting": "100 μM maintained for four cell doublings", "value": 16, "unit": "fold"}, {"measurement": "Fold less LRV1 capsid expression", "setting": "100 μM maintained for three cell doublings", "value": 8, "unit": "fold"}, {"measurement": "Loss of LRV1 capsid and RNA at every cell doubling", "setting": "100 μM, capsid flow cytometry and qRT-PCR", "value": 50, "unit": "%"}, {"measurement": "EC50", "setting": "48 h, read-out: EC50 for 2CMA inhibition of LRV1 in the presence of allopurinol", "value": "~3000", "unit": "nM"}, {"measurement": "activity at 100 µM", "setting": "48 h, read-out: Percent control (LRV1 capsid)", "value": 7, "unit": "%"}, {"measurement": "Selectivity for LRV1 versus L. guyanensis growth inhibition", "setting": "EC50 growth vs EC50 LRV1 capsid", "value": "at least 30 fold"}, {"measurement": "LRV1 capsid (geometric mean FU)", "setting": "LgyLRV1+, tested at 100 μM, 2 days", "value": 19, "unit": "FU"}, {"measurement": "EC50", "setting": "read-out: EC50 for LRV1 capsid inhibition", "value": "~3000", "unit": "nM"}, {"measurement": "Reduction in LRV1 capsid levels", "setting": "tested at 100 μM", "value": 12, "unit": "fold"}]}]}
